Experimental data reported in publication PMC12802961 (Journal of Antimicrobial Chemotherapy, 2025).
Values joined by “and” are separate entries in the source; they are usually repeats but may differ in a detail not shown here. Identical values can stand only once.

What was measured:
E. coli 52 = test: Neutropenic murine thigh infection model; assay type: in vivo, Escherichia coli
Protocol: All dosing regimens were performed in at least two animals per dosing regimen.
At t = 0 h, 2 h after infection, two mice were humanely euthanized to determine the initial number of cfu/thigh just before treatment. […] Subsequently, thighs were homogenized using the Ultra-Turrax homogenizer (IKA Labortechnik, Germany). For each thigh 10-fold dilution series were prepared and 3 × 10 µL per dilution were plated (Chromagar, bioMérieux, NL). The following day, colonies were counted and the number of cfu/thigh was calculated.
Free drug concentrations were used in all calculations.

[1] = human simulated regimen of cefepime 2 g q8h as 2 h infusion; cited from earlier work
[2] = Protein binding, equilibrium dialysis chamber, LC-MS/MS; assay type: in vitro ADME
Excerpt: […]. […] […].
. […] Free drug concentrations were used in all calculations. […]

[3] = Single-dose plasma pharmacokinetics, s.c., infected neutropenic mice
Protocol: All animal procedures were carried out in the Animal Facility for Medical and Scientific Purposes of the University General Hospital Attikon (EL 25 BIO 014), Athens, Greece. […] Outbred female CD-1 mice, obtained by the Hellenic Pasteur Institute, Greece, and Charles River Laboratories Models and Services, Germany, were used at the age of 7–8 weeks, weighing 20–25 g. The animals were allowed to acclimatize for at least 5 days upon arrival and were housed under standard conditions with water and food supplied ad libitum. […] Infection was induced (Day 0) by intramuscular injection of 0.05 mL bacterial inoculum of approximately 10^5–10^6 cfu/thigh.
The dose was administered s.c. (0.1 mL) 2 h after infection (t = 0 h). Blood samples were collected in 1 mL K3EDTA tubes through orbital sinus bleeding under isoflurane anaesthesia. Animals were immediately euthanized through cervical dislocation and blood samples taken at timepoints 0, 0.08, 0.25, 0.5, 0.75, 1, 1.5, 2, 3, 4, 6, and 8 h after single dose injection. Blood samples were centrifuged immediately after collection in a pre-cooled centrifuge, and plasma was stored at −80°C. For each timepoint two animals were euthanized in order to have duplicates for each condition.
The Cmax values were calculated from raw data and the AUCs were calculated using the trapezoidal rule. […] Equations used in the program were the classical polyexponential equations Ci(t) = PolyExp(i, n, t), where i = number of the compartments, n = number of doses and t = time from last dose (http://www.boomer.org/c/p4/c19/c19.pdf). The %fT > Ct was then determined using a bisectional rootfinder for intersections between simulated curve and concentration, and calculating the difference between intersection values. Free drug concentrations were used in all calculations.
For taniborbactam, a population pharmacokinetic model was developed using nonlinear mixed-effects modelling (NONMEM). The analysis was performed on the natural logarithm of the concentrations using the FOCE method with INTERACTION. All mice were assumed to weigh 1kg, resulting in PK parameters corresponding to a per kg base. […] Tools used to evaluate and visualize the model were RStudio (v0.98.1049), R (v3.1.2), XPose (v4.5.3) and PsN (v4.6.0), all with the graphical interface Pirana (v2.9.0).
To determine the structural pharmacokinetic model 1-, 2- and 3-compartment models were tested. Pharmacokinetic parameters were estimated in terms of central and peripheral volume of distribution (Vc and Vp), clearance (CL), and intercompartmental clearance (Q). Addition of interindividual variability (IPV), described using an exponential eta model, was evaluated for each pharmacokinetic parameter. The covariance between values for IPV was estimated using a […] matrix. Residual variability between observed and predicted plasma concentrations was described using an additional error model for logarithmically transformed data. The minimum value of objective function (OFV) was used as a criterion for model selection. […] Model adequacy was further evaluated by using various residual plots (‘goodness-of-fit’ plots) and values of random effects in variances. In the second step relationships between pharmacokinetic parameters and potential covariates were investigated. […] Dose covariates were modelled by using an exponential model, place of infection was modelled proportionally. Criteria for the inclusion of covariates in the model were the OFV, results of graphical evaluation of the parameter-covariate relationship and the decrease in parameter variability.
Three procedures were used to validate the final model. As an internal validation method, a bootstrap resampling method was used. Bootstrap datasets (n=1000) were generated by sampling randomly from the original dataset with replacement. Parameters were estimated for each of the replicate datasets using the developed model.

K. pneumoniae 59 = test: Checkerboard broth microdilution MIC of cefepime alone and with taniborbactam; assay type: cell-based, Klebsiella pneumoniae
Excerpt: Four previously well-characterized cefepime-resistant isolates, namely one ESBL-producing E. coli, one ESBL-producing K. pneumoniae and two P. aeruginosa (one VIM- and one AmpC constitutively -producing), were used.

[4] = human, in vivo; cited from earlier work
[5] = system: AmpC constitutively-producing P. aeruginosa; conditions: cited from earlier work
[6] = in vivo
[7] = cefepime monotherapy q2h, extrapolated
[8] = cefepime monotherapy, extrapolated
[9] = + cefepime q2h 4 mg/kg, Ct 0.015 mg/L
[10] = + cefepime q2h 4 mg/kg, Ct 0.03 mg/L
[11] = + cefepime q2h 4 mg/kg, Ct 0.06 mg/L
[12] = + cefepime q2h 4 mg/kg, Ct 0.125 mg/L
[13] = + cefepime q2h 4 mg/kg, Ct 0.25 mg/L
[14] = + cefepime q2h 4 mg/kg, Ct 0.5 mg/L
[15] = + cefepime q2h 4 mg/kg, Ct 1 mg/L
[16] = + cefepime q2h 4 mg/kg, Ct 2 mg/L
[17] = + cefepime q2h 4 mg/kg, Ct 4 mg/L
[18] = taniborbactam q2h + cefepime q2h 4 mg/kg
[19] = taniborbactam, two-compartment model

CO/N=C(\C(=O)N[C@@H]1C(=O)N2C(C(=O)[O-])=C(C[N+]3(C)CCCC3)CS[C@H]12)c1csc(N)n1 [cefepime, Cefepime]
1 log10 kill: %ƒT > MIC (E. coli 52; [7]): (53.9) % | 1 log10 kill: Total daily dose, mg/kg (E. coli 52; [7]): (5237.2) mg/kg | Stasis: %ƒT > MIC (E. coli 52; [7]): (36.5) % | Stasis: Total daily dose, mg/kg (E. coli 52; cefepime monotherapy q2h s.c. 24 h, extrapolated, Emax model): (1857.2) mg/kg | 1 log10 kill: q2h dose, mg/kg (E. coli 52; [8]): (436.4) mg/kg | Stasis: q2h dose, mg/kg (E. coli 52; [8]): (154.8) mg/kg | Cefepime %fT > potMIC (E. coli 52; cefepime q2h 4 mg/kg, potMIC 0.06 mg/L (with 4 mg/L taniborbactam)): 80.70% | fAUC0-24 [1]: ~787.8 µg·h/mL | fraction unbound [2]: 0.8 | absorbance rate Ka ([3]; cefepime, one-compartment model, serum/plasma, s.c., infected mice): 15 h⁻¹ | Cefepime MIC at taniborbactam 0.03 mg/L (K. pneumoniae 59; K. pneumoniae 59, +taniborbactam 0.03 mg/L): 64 µg/mL | Cefepime MIC at taniborbactam 0.06 mg/L (K. pneumoniae 59; K. pneumoniae 59, +taniborbactam 0.06 mg/L): 32 µg/mL | Cefepime MIC at taniborbactam 0.125 mg/L (K. pneumoniae 59; K. pneumoniae 59, +taniborbactam 0.125 mg/L): 8 µg/mL | Cefepime MIC at taniborbactam 0.25 mg/L (K. pneumoniae 59; K. pneumoniae 59, +taniborbactam 0.25 mg/L): 2 µg/mL | Cefepime MIC at taniborbactam 0.5 mg/L (K. pneumoniae 59; K. pneumoniae 59, +taniborbactam 0.5 mg/L): 1 µg/mL | Cefepime MIC at taniborbactam 1 mg/L (K. pneumoniae 59; K. pneumoniae 59, +taniborbactam 1 mg/L): 1 µg/mL | Cefepime MIC at taniborbactam 2 mg/L (K. pneumoniae 59; K. pneumoniae 59, +taniborbactam 2 mg/L): 1 µg/mL | Cefepime MIC at taniborbactam 4 mg/L (potMIC) (K. pneumoniae 59; K. pneumoniae 59, +taniborbactam 4 mg/L): 0.5 µg/mL | MIC (K. pneumoniae 59; Klebsiella pneumoniae, 59, read-out: Cefepime MIC (mg/L) alone): 256 mg/L

NCCN[C@H]1CC[C@H](CC(=O)N[C@H]2Cc3cccc(C(=O)O)c3OB2O)CC1 [taniborbactam, Taniborbactam]
half-life [4]: 600 min | Reduction of cefepime MICs (fold dilution) [5]: 2 fold | fT > Ct 8 mg/L [6]: 100% | 1 log kill: Taniborbactam %ƒT > Ct 0.015 mg/L (E. coli 52; [9]): 100% | Stasis: Taniborbactam %ƒT > Ct 0.015 mg/L (E. coli 52; [9]): 70.24% | 1 log kill: Taniborbactam %ƒT > Ct 0.03 mg/L (E. coli 52; [10]): 100% | Stasis: Taniborbactam %ƒT > Ct 0.03 mg/L (E. coli 52; [10]): 53.44% | 1 log kill: Taniborbactam %ƒT > Ct 0.06 mg/L (E. coli 52; [11]): 99.7% | Stasis: Taniborbactam %ƒT > Ct 0.06 mg/L (E. coli 52; [11]): 36.6% and 36.55% | 1 log kill: Taniborbactam %ƒT > Ct 0.125 mg/L (E. coli 52; [12]): 82.8% and 82.82% | Stasis: Taniborbactam %ƒT > Ct 0.125 mg/L (E. coli 52; [12]): 19.7% and 19.66% | 1 log kill: Taniborbactam %ƒT > Ct 0.25 mg/L (E. coli 52; [13]): 65.92% | Stasis: Taniborbactam %ƒT > Ct 0.25 mg/L (E. coli 52; [13]): 2.74% | 1 log kill: Taniborbactam %ƒT > Ct 0.5 mg/L (E. coli 52; [14]): 49.3% | Stasis: Taniborbactam %ƒT > Ct 0.5 mg/L (E. coli 52; [14]): 0% | 1 log kill: Taniborbactam %ƒT > Ct 1 mg/L (E. coli 52; [15]): 32.14% | Stasis: Taniborbactam %ƒT > Ct 1 mg/L (E. coli 52; [15]): 0% | 1 log kill: Taniborbactam %ƒT > Ct 2 mg/L (E. coli 52; [16]): 15.24% | Stasis: Taniborbactam %ƒT > Ct 2 mg/L (E. coli 52; [16]): 0% | 1 log kill: Taniborbactam %ƒT > Ct 4 mg/L (E. coli 52; [17]): 0% | Stasis: Taniborbactam %ƒT > Ct 4 mg/L (E. coli 52; [17]): 0% | 1 log kill: Taniborbactam total daily dose, mg/kg (E. coli 52; [18]): 41.8 mg/kg | Stasis: Taniborbactam total daily dose (E. coli 52; [18]): 3.20 mg/kg | Protein binding [2]: 19.6% | Absorption rate (h-1), Bootstrap ([3]; 772 successful bootstrap runs): 20 h⁻¹ | Central volume of distribution (L/Kg), Bootstrap median (95-percentile range) ([3]; 772 successful bootstrap runs): 0.63 (0.58-0.68) L/Kg | Clearance (L/h/Kg), Bootstrap median (95-percentile range) ([3]; 772 successful bootstrap runs): 1.49 (1.23-1.57) L/h/Kg | IPV (%) on clearance, Bootstrap median (95-percentile range) ([3]; 772 successful bootstrap runs): 14 (8-19) % | IPV (%) on intercompartmental clearance, Bootstrap median (95-percentile range) ([3]; 772 successful bootstrap runs): 59 (40-77) % | Intercompartmental clearance (L/h), Bootstrap median (95-percentile range) ([3]; 772 successful bootstrap runs): 0.11 (0.08-0.35) L/h | Peripheral volume of distribution (L/Kg), Bootstrap median (95-percentile range) ([3]; 772 successful bootstrap runs): 0.94 (0.46-13.0) L/Kg | t1/2a ([3]; central compartment, estimated): 17.6 min | IPV (%) on clearance, Estimation, value (RSE) ([3]; interindividual variability of CL): 14.2 (14%) | IPV (%) on intercompartmental clearance, Estimation, value (RSE) ([3]; interindividual variability of Q): 60.7 (13%) | t1/2b ([3]; peripheral compartment, estimated): 45 min | Central volume of distribution (L/Kg), Estimation, value (RSE) ([3]; population PK model (NONMEM)): 0.628 (4%) L/Kg | Clearance (L/h/Kg), Estimation, value (RSE) ([3]; population PK model (NONMEM)): 1.49 (3%) L/h/Kg | Peripheral volume of distribution (L/Kg), Estimation, value (RSE) ([3]; population PK model (NONMEM)): 0.926 (1%) L/Kg | Absorption rate (h-1), Estimation ([3]; population PK model (NONMEM), fixed): 20 (fixed) h-1 | Intercompartmental clearance (L/h), Estimation, value (RSE) ([3]; population PK model (NONMEM), per kg): 0.109 (10%) L/h | Vc [3, 19]: 0.628 L/kg | volume of peripheral compartment Vp [3, 19]: 0.926 L/kg | Ka ([3]; taniborbactam, two-compartment model, fixed value): 20 h⁻¹ | Taniborbactam concentration at which reversal of phenotypic resistance to cefepime was observed (K. pneumoniae 59; ESBL-producing K. pneumoniae, in vitro checkerboard): 0.25 mg/L
